Measured values from patent US7122570B2, “Tetrahydrocarbazol derivatives as ligands for G-protein-coupled receptors (GPCR)” (Zentaris AG, priority 2001, dated 2006).
pEC50, pIC50: −log10 of the molar value.

Key:
GnRH receptor [1] = target: T1, GnRH receptor (Homo sapiens, UniProt P30968); test: Ca2+ release, human; type: cell-based; details: read-out: Ca^2+ Release Human IC50
T1 sequence (P30968 1-328): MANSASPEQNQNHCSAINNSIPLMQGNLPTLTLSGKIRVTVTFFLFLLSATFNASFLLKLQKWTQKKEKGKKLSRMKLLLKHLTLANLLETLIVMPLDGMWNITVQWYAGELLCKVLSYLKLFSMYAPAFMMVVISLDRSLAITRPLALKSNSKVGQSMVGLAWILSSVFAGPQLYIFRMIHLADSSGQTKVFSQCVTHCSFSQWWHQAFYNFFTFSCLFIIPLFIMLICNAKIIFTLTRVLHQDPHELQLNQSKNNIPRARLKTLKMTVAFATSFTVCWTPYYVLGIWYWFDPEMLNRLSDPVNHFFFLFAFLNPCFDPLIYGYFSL

hGnRH-Receptor = target: T2, hGnRH-Receptor (Homo sapiens, UniProt P30968); test: GnRH receptor assay: competition binding with 125I-labeled buserelin on cell membranes; details: competition with 125I-buserelin
T2 construct: expressed in transfected cells; host or cells: CHO-3 cells (Schmid et al., J. Biol. Chem. 275 (2000), 9193-9200), membrane preparation
T2 sequence (P30968 1-328): T1 sequence (P30968 1-328)
Experimental: Buserelin is ordered from Welding (Frankfurt/Main, Germany). The compound is labeled with ^125I by use of the chloramine T-method and Na^125I (4000 Ci/mmol; Amersham-Buchler, Brunswick, Germany). The labeled substance is purified by reverse phase HPLC on a Spherisorb ODS II column (250×4 mm, particle size 3 μm) by elution with 50% acetonitrile/0.15% trifluoroacetic acid at a flow rate of 0.5 ml/minute. The specific activity is 2000 Ci/mmol.
Alpha T3-1 cells (Bilezikjian et al., Mol. Endocrinol 5 (1991), 347–355) are cultivated in DMEM medium (Gibco-BRL, Eggenstein-Leopoldshafen, Germany) with penicillin (100 I.U./ml), streptomycin (0.1 mg/ml) and glutamine (0.01 mol/l) and 10% fetal calf serum (FCS; PAA Laboratories, Coelbe, Germany) on plastic tissue culture plates (Nunc, 245×245×20 mm). CHO-3 cells (Schmid et al., J. Biol. Chem. 275 (2000), 9193–9200) are cultivated under identical conditions, apart from the fact that Ham's F12 medium (Gibco-BRL) is used.
Ten confluent cell culture plates are flushed twice with 50 ml of phosphate-buffered salt solution (PBS). The cells are harvested by scraping them off with a rubber scraper in 5 ml of PBS and sedimented by centrifuging in a laboratory centrifuge (Heraeus) at 800 rpm for 10 minutes. The cell pellet is resuspended in 5 ml of 0.25 mol/l of saccharose/0.01 mol/l of triethanolamine, pH 7.4. The cells are lysed by three cycles of freezing in dry ice/ethanol bath and thawing at room temperature. The lysate is centrifuged at 900 rpm for 10 minutes, and the sediment is discarded. The supernatant is centrifuged at 18,000 rpm in a Sorvall SS34 rotor for 30 minutes. The pellet (cell membranes) is suspended by Potters in 5 ml of assay buffer (0.25 mol/l of saccharose, 0.01 mol/l of triethanolamine, pH 7.5, 1 mg/ml of ovalbumin) and stored in 200 μl of aliquots at −20° C. The determination of protein is carried out according to the Bradford method (Anal. Biochem. 72 (1976), 248–254).
Binding studies for competition curves are performed as triplicates. A test sample contains 60 μl of cell membrane suspension (10 μg of protein for αT3-1 cells or 40 μg of protein for CHO3 cells), 20 μl of ^125I-labeled buserelin (100,000 Ipm per sample for competition curves and between 1,500 and 200,000 Ipm for saturation experiments) and 20 μl of test buffer or test compound solution. The test compounds are dissolved in distilled water or 50% ethanol. Serial dilutions (5×10^−6 mol/l to […]) are produced in test buffer. The unspecific binding is determined in the presence of excess unlabeled buserelin (10^−6 mol/1). The test samples are incubated for 30 minutes at room temperature. Bonded and free ligands are separated by filtration (Whatman GF/C-filter, 2.5 cm diameter) with use of an Amicon 10x collecting device and washed twice with 5 ml of 0.02 mol/l of Tris/HCl, pH 7.4. The filters are moistened with 0.3% polyethylenimine (Serva; Heidelberg, Germany) for 30 minutes to reduce the unspecific binding. The radioactivity that was held up by the filter is determined in a 5-channel gamma-counter (Wallac-LKB 1470 Wizard).
In the table below, the IC50 values that are obtained for the preferred compounds, as defined above, are indicated.

GnRH receptor [2] = target: T1, GnRH receptor; test: Receptor binding assay with 125I-triptorelin on transfected LTK cells; details: competition with 125I-triptorelin, whole LTK cells, 60 minutes at 37° C.
Experimental: ^125I-Triptorelin [^125I-(D)-Trp6-GnRH] is ordered from the Biotrend Company (Cologne, Germany). The specific activity in each case is 2.13 Ci/mmol. All other chemicals are ordered from commercial sources at the highest available purity.
Transfixed LTK′ cells (ATCC No. CCL-11.3) are cultivated in DMEM medium (Invitrogen Life Technologies, Germany) with penicillin (100 I.U./ml), streptomycin (0.1 mg/ml) and glutamine (0.01 mol/l) and 10% fetal calf serum (FCS; Invitrogen Life Technologies, Germany) on plastic tissue culture plates (Nunc, Germany, 245×245×20 nun).
80% confluent cell culture plates are washed twice with 50 ml of phosphate-buffered salt solution (PBS) and dissolved below with 0.01 M EDTA solution. The cells are pelletized by centrifuging at 200×g for 5 minutes in a laboratory centrifuge (Kendro, Germany). The cell pellet is resuspended in 3 ml of binding medium (DMEM; 10 mmol of Hepes; 0.5% BSA; 0.1% NaN3; 1 g/l of bacitracin (freshly added, stock 100×); 0.1 g/l of SBTI (freshly added, stock 1000×), and the cell count is determined by means of trypan blue staining in a Neubauer counting chamber. The cell suspension is set with binding medium to a concentration of 5×10^5 Z/0.05 ml.
Binding tests for competition curves are performed as duplicates. The test substances are used as 10 mmol DMSO solutions. They are diluted with binding medium to 4× the final concentration used. 25 μl of the substance dilution is mixed with 25 μl of tracer solution (^125I-triptorelin). The concentration of tracer is set to about 50,000 cpm (measured in Cobra II, γ-counter, PE Liefe Science, Germany) in the final reaction volume of 100 μl.
200 μl of a silicone/paraffin oil mixture (84%:16%) is introduced into 650 μl pointed-bottom tubes (Roth, Germany). 50 μl of the cell suspension is pipetted thereto and subsequently 50 μl of the test substance/tracer mixture. The tubes are sealed and incubated for 60 minutes at 37° C. in an incubator that rotates via the top. After incubation, the samples are centrifuged in a centrifuge (Kendro, Germany) at 900 rpm and subsequently flash-frozen in liquid N2. The tip with the cell pellet is cut off and inserted into the prepared counting tube (Roth, Germany). The remainder of the pointed-bottom tube with the remaining supernatant is also inserted into a counting tube. The measurement is made in a γ-counter for 1 minute/sample.
The evaluation of the samples is carried out after calculating the specific bond in comparison to untreated cells, after the unspecific bond (excess unlabeled ligand, 1 mmol) is removed by means of GraphPad Prism (GraphPad Software Inc., USA).

| pIC50 (GnRH receptor [1]) | pIC50 (hGnRH-Receptor) | pEC50 (GnRH receptor [2]) | Structure (SMILES) |
| --- | --- | --- | --- |
| 5.52 | 5.60 | – | CC[C@H](C)[C@H](NC(=O)OCc1ccccc1)C(=O)N[C@]1(C(=O)N[C@H](C(=O)NC)C(C)C)CCc2[nH]c3ccccc3c2C1 [Compound 222a, Phenylmethyl [(1S,2S)-2-methyl-1-[[[(3R)-2,3,4,9-tetrahydro-3-[[[(1S)-2-methyl-1-[(methylamino)carbonyl]-propyl]amino]carbonyl]-1H-carbazol-3-yl]amino]carbonyl]-butyl]carbamate] |
| 6.00 | 5.05 | – | CC(C)[C@H](NC(=O)[C@@]1(NCCCCCCc2ccccc2)CCc2[nH]c3ccccc3c2C1)C(N)=O [Compound 234a, (3R)-N-[(1S)-1-(Aminocarbonyl)-2-methylpropyl]-2,3,4,9-tetrahydro-3-[(6-phenylhexyl)amino]-1H-carbazole-3-carboxamide] |
| 6.30 | 6.40 | – | CC[C@H](C)[C@H](NC(=O)OCc1ccccc1)C(=O)N[C@]1(C(=O)N[C@H](CO)C(C)C)CCc2[nH]c3ccccc3c2C1 [Compound 267a, Phenylmethyl [(1S,2S)-1-[[[(3R)-3-[[[(1S)-1-(hydroxymethyl)-2-methylpropyl]amino]-carbonyl]-2,3,4,9-tetrahydro-1H-carbazol-3-yl]amino]carbonyl]-2-methylbutyl]carbamate] |

More lines, now with the values behind:

| Structure (SMILES) | pIC50 (GnRH receptor [1]) | pIC50 (hGnRH-Receptor) | pEC50 (GnRH receptor [2]) |
| --- | --- | --- | --- |
| COc1cccc2c3c([nH]c12)CC[C@](NC(=O)Cc1ccc(Cl)cc1)(C(=O)N1CCC[C@H]1C(N)=O)C3 [Compound 189a, (2S)-1-[[(3R)-3-[[(4-Chlorophenyl)acetyl]-amino]-2,3,4,9-tetrahydro-8-methoxy-1H-carbazol-3-yl]carbonyl]-2-pyrrolidine-carboxamide] | 6.30 | 6.15 | – |
| CC[C@H](C)[C@H](NC(=O)OCc1ccccc1)C(=O)N[C@]1(C(=O)N2C3CCCCC3C[C@H]2C(N)=O)CCc2[nH]c3ccccc3c2C1 (stereo partly drawn) [Compound 190a, Phenylmethyl [(1S,2S)-1-[[[(3R)-3-[[(2S)-2-(aminocarbonyl)octahydro-1H-indol-1-yl]-carbonyl]-2,3,4,9-tetrahydro-1H-carbazol-3-yl]-amino]carbonyl]-2-methylbutyl]carbamate] | 6.30 | 5.70 | – |
| c1ccc(CCCC2(CNCc3ccccn3)CCc3[nH]c4ccccc4c3C2)cc1 (centres unmarked) [Compound 279, 2,3,4,9-Tetrahydro-3-(3-phenylpropyl)-N-(2-pyridinylmethyl)-1H-carbazole-3-methanamine] | 5.52 | 5.70 | – |
| Clc1cc(Cl)c2[nH]c3c(c2c1)CC(CCCc1ccccc1)(CNCc1ccccn1)CC3 (centres unmarked) [Compound 283, 6,8-dichloro-2,3,4,9-tetrahydro-3-(3-phenylpropyl)-N-(2-pyridinylmethyl)-1H-carbazole-3-methanamine] | 5.52 | 6.00 | – |
| CC(C)[C@@H](CO)NCC1(CCCc2ccccc2)CCc2[nH]c3ccccc3c2C1 (stereo partly drawn) [Compound 284, (2S)-3-Methyl-2-[[[2,3,4,9-tetrahydro-3-(3-phenylpropyl)-1H-carbazol-3-yl]methyl]-amino]-1-butanol] | 5.15 | 5.15 | – |
| CC[C@H](C)[C@H](NC(=O)OCc1ccccc1)C(=O)N[C@]1(C(=O)N[C@H](C(N)=O)C(C)(C)C)CCc2[nH]c3c(Cl)cc(Cl)cc3c2C1 [Compound 298, Phenylmethyl [(1S,2S)-1-[[[(3R)-3-[[[(1S)-1-(aminocarbonyl)-2,2-dimethylpropyl]amino]carbonyl]-6,8-dichloro-2,3,4,9-tetrahydro-1H-carbazol-3-yl]amino]car-bonyl]-2-methylbutyl]carbamate] | – | – | 6.54 |
| CC[C@H](C)[C@H](NC(=O)[C@@]1(NC(=O)[C@H](CCc2ccc(O)cc2)NC(=O)OCc2ccccc2)CCc2[nH]c3c(Cl)cc(Cl)cc3c2C1)C(N)=O [Compound 303, Phenylmethyl [(1S)-1-[[[(3R)-3-[[[(1S,2S)-1-(aminocarbonyl)-2-methylbutyl]amino]carbonyl]-6,8-dichloro-2,3,4,9-tetrahydro-1H-carbazol-3-yl]amino]car-bonyl]-3-(4-hydroxyphenyl)-propyl]carbamate] | – | – | 7.68 |
| CC[C@H](C)[C@H](NC(=O)[C@@]1(NC(=O)[C@H](CC(C)C)NC(=O)OCc2ccccc2)CCc2[nH]c3c(Cl)cc(Cl)cc3c2C1)C(N)=O [Compound 305, Phenylmethyl [(1S)-1-[[[(3R)-3-[[[(1S,2S)-1-(aminocarbonyl)-2-methylbutyl]amino]carbonyl]-6,8-dichloro-2-3,4,9-tetrahydro-1H-carbazol-3-yl]amino]car-bonyl]-3-methylbutyl]carbamate] | – | – | 7.25 |
| CC(C)C[C@H](NC(=O)[C@@]1(NC(=O)[C@H](CC(C)C)NC(=O)OCc2ccccc2)CCc2[nH]c3c(Cl)cc(Cl)cc3c2C1)C(N)=O [Compound 306, Phenylmethyl [(1S)-1-[[[(3R)-3-[[[(1S)-1-(aminocarbonyl)-3-methylbutyl]amino]carbonyl]-6,8-dichloro-2,3,4,9-tetrahydro-1H-carbazol-3-yl]amino]car-bonyl]-3-methylbutyl]carbamate] | – | – | 7.11 |
